Several values for one entry are separate records, joined by “and”; a condition that tells them apart may be missing. Equal values may be shown once. Inconclusive results and toxic doses are left out. Cut-off read from the data, not from the text of the source: active = T/C of 150% or more; inactive = T/C below 125%.
Test system: L1210 leukemia ip in BDF1 mice, survival T/C
Assay: NCI In Vivo Anticancer Drug Screen. Data for tumor model L1210 Leukemia (intraperitoneal) in B6D2F1 (BDF1) mice
Settings: endpoint: mean survival time, higher = longer survival
Summary of the method: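 Antitumor effect is assessed in tumor-bearing animals. Survival in the compound arm is compared with a vehicle-dosed control arm and expressed as their quotient.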

[1] = dose: 100.0 mg/kg/injection, schedule: Q04DX003 (ip), vehicle: Klucel (hydroxypropylcellulose) (HPC)
[2] = dose: 200.0 mg/kg/injection, schedule: Q04DX003 (ip), vehicle: Klucel (hydroxypropylcellulose) (HPC)
[3] = dose: 400.0 mg/kg/injection, schedule: Q04DX003 (ip), vehicle: Klucel (hydroxypropylcellulose) (HPC)
[4] = dose: 50.0 mg/kg/injection, schedule: Q01DX009 (ip), vehicle: saline
[5] = dose: 100.0 mg/kg/injection, schedule: Q01DX001 (ip), vehicle: saline
[6] = dose: 100.0 mg/kg/injection, schedule: Q01DX009 (ip), vehicle: saline
[7] = dose: 100.0 mg/kg/injection, schedule: Q04DX003 (ip), vehicle: saline
[8] = dose: 200.0 mg/kg/injection, schedule: Q01DX001 (ip), vehicle: saline
[9] = dose: 200.0 mg/kg/injection, schedule: Q04DX003 (ip), vehicle: saline
[10] = dose: 400.0 mg/kg/injection, schedule: Q01DX001 (ip), vehicle: saline
[11] = dose: 400.0 mg/kg/injection, schedule: Q04DX003 (ip), vehicle: saline
[12] = dose: 100.0 mg/kg/injection, schedule: Q01DX009 (ip), vehicle: Klucel (hydroxypropylcellulose) (HPC)
[13] = dose: 200.0 mg/kg/injection, schedule: Q01DX009 (ip), vehicle: Klucel (hydroxypropylcellulose) (HPC)
[14] = dose: 400.0 mg/kg/injection, schedule: Q01DX009 (ip), vehicle: Klucel (hydroxypropylcellulose) (HPC)
[15] = dose: 100.0 mg/kg/injection, schedule: Q01DX009 (ip), vehicle: saline with Tween-80
[16] = dose: 200.0 mg/kg/injection, schedule: Q01DX009 (ip), vehicle: saline with Tween-80
[17] = dose: 400.0 mg/kg/injection, schedule: Q01DX009 (ip), vehicle: saline with Tween-80
[18] = dose: 200.0 mg/kg/injection, schedule: Q01DX009 (ip), vehicle: saline
[19] = dose: 400.0 mg/kg/injection, schedule: Q01DX009 (ip), vehicle: saline
[20] = dose: 100.0 mg/kg/injection, schedule: Q04DX002 (ip), vehicle: saline

Measured: T/C

OC(CI)C(O)C(O)C(O)CI (stereo not drawn)
inactive: dose: 50.0 mg/kg/injection, schedule: Q01DX009 (ip), vehicle: other 101 % of control | dose: 100.0 mg/kg/injection, schedule: Q01DX009 (ip), vehicle: other 101 % of control and 106 % of control | dose: 100.0 mg/kg/injection, schedule: Q## X024 (ip), vehicle: other 103 % of control | dose: 177.0 mg/kg/injection, schedule: Q01DX Z (ip), vehicle: methylcellulose (MC) 92 % of control | dose: 200.0 mg/kg/injection, schedule: Q01DX001 (ip), vehicle: other 103 % of control and 101 % of control | dose: 200.0 mg/kg/injection, schedule: Q01DX009 (ip), vehicle: other 95 % of control and 111 % of control | dose: 200.0 mg/kg/injection, schedule: Q## X003 (ip), vehicle: other 109 % of control | dose: 200.0 mg/kg/injection, schedule: Q## X024 (ip), vehicle: other 111 % of control | dose: 267.0 mg/kg/injection, schedule: Q01DX Z (ip), vehicle: methylcellulose (MC) 108 % of control | dose: 400.0 mg/kg/injection, schedule: Q01DX001 (ip), vehicle: other 97 % of control and 111 % of control | dose: 400.0 mg/kg/injection, schedule: Q01DX009 (ip), vehicle: other 101 % of control | dose: 400.0 mg/kg/injection, schedule: Q01DX Z (ip), vehicle: methylcellulose (MC) 93 % of control | dose: 400.0 mg/kg/injection, schedule: Q## X003 (ip), vehicle: other 109 % of control | dose: 400.0 mg/kg/injection, schedule: Q## X024 (ip), vehicle: other 108 % of control | dose: 600.0 mg/kg/injection, schedule: Q01DX Z (ip), vehicle: methylcellulose (MC) 98 % of control | dose: 800.0 mg/kg/injection, schedule: Q01DX001 (ip), vehicle: other 105 % of control and 101 % of control | dose: 800.0 mg/kg/injection, schedule: Q## X003 (ip), vehicle: other 109 % of control | dose: 800.0 mg/kg/injection, schedule: Q## X024 (ip), vehicle: other 124 % of control

CCCCCCCCC(=O)NCc1cccc(OC)c1
inactive: [1] 95 % of control | [2] 95 % of control | [3] 105 % of control

CC(O)C(O)C(=O)O (stereo not drawn)
inactive: dose: 25.0 mg/kg/injection, schedule: Q01DX009 (ip), vehicle: saline 95 % of control | [4] 90 % of control | [5] 96 % of control | [6] 95 % of control | [7] 108 % of control | [8] 102 % of control | [9] 101 % of control | [10] 96 % of control | [11] 94 % of control

CC(C)c1cc[n+](/C(C(=S)Nc2ccccc2Cl)=C(/[O-])c2ccc([N+](=O)[O-])cc2)cc1
inactive: [12] 94 % of control | [13] 97 % of control | [14] 96 % of control

O=C(/C(Br)=C/c1ccccc1)/C(Br)=C/c1ccccc1
inactive: dose: 100.0 mg/kg/injection, schedule: Q01DX001 (ip), vehicle: saline sonified 97 % of control | [15] 109 % of control | dose: 200.0 mg/kg/injection, schedule: Q01DX001 (ip), vehicle: saline sonified 98 % of control | [16] 93 % of control | dose: 400.0 mg/kg/injection, schedule: Q01DX001 (ip), vehicle: saline sonified 93 % of control | [17] 94 % of control

C=CCOc1ccccn1
inactive: dose: 50.0 mg/kg/injection, schedule: Q01DX009 (ip), vehicle: saline with Tween-80 98 % of control | dose: 50.0 mg/kg/injection, schedule: Q04DX003 (ip), vehicle: saline with Tween-80 105 % of control | [15] 104 % of control | dose: 100.0 mg/kg/injection, schedule: Q04DX003 (ip), vehicle: saline with Tween-80 98 % of control | [16] 98 % of control | dose: 200.0 mg/kg/injection, schedule: Q04DX003 (ip), vehicle: saline with Tween-80 102 % of control

COc1ccc2c(c1)CCC1C2CCC2(C)C(=O)OC(=O)C12 (stereo not drawn)
inactive: dose: 100.0 mg/kg/injection, schedule: Q01DX009 (sc), vehicle: steriod suspending solution 109 % of control | dose: 200.0 mg/kg/injection, schedule: Q01DX009 (sc), vehicle: steriod suspending solution 98 % of control | dose: 400.0 mg/kg/injection, schedule: Q01DX009 (sc), vehicle: steriod suspending solution 103 % of control

OC1OCCOC1O (stereo not drawn)
inactive: [4] 100 % of control | [6] 100 % of control | [18] 109 % of control | [19] 103 % of control

CN(N=O)C(=O)NCCOC(=O)N(C)N=O
inactive: dose: 6.25 mg/kg/injection, schedule: Q01DX Z (ip), vehicle: carboxymethylcellulose (CMC) 124 % of control | dose: 12.5 mg/kg/injection, schedule: Q01DX Z (ip), vehicle: carboxymethylcellulose (CMC) 124 % of control

O=C(O)COc1ccc(OCC(=O)O)cc1
inactive: [12] 97 % of control | [1] 95 % of control | [13] 89 % of control | [2] 95 % of control | [14] 89 % of control | [3] 92 % of control

OC/C=[CH]\[Sn]([c]1ccccc1)([c]1ccccc1)[c]1ccccc1
inactive: dose: 100.0 mg/kg/injection, schedule: Q04DX002 (ip), vehicle: saline with Tween-80 95 % of control | dose: 200.0 mg/kg/injection, schedule: Q04DX002 (ip), vehicle: saline with Tween-80 119 % of control | dose: 400.0 mg/kg/injection, schedule: Q04DX002 (ip), vehicle: saline with Tween-80 119 % of control

CC(=O)C1CCC=C2C1CC1CC2C1(C)C (stereo not drawn)
inactive: [12] 106 % of control | [1] 92 % of control | [13] 100 % of control | [2] 87 % of control | [14] 101 % of control | [3] 90 % of control

CC(c1ccccc1C(=O)O)c1ccc(Br)c2ccccc12 (stereo not drawn)
inactive: dose: 50.0 mg/kg/injection, schedule: Q04DX003 (ip), vehicle: Klucel (hydroxypropylcellulose) (HPC) 93 % of control | [1] 108 % of control | [2] 98 % of control

CC1(C)CC([NH-])CC(C)(C)N1O.CC1(C)CC([NH-])CC(C)(C)N1O.[Cl][Pd][Cl]
inactive: [7] 94 % of control | [9] 105 % of control | [11] 90 % of control

NC(=O)CC(NC(=O)CCl)C(=O)O (stereo not drawn)
inactive: [15] 104 % of control | [16] 87 % of control | [17] 86 % of control

CCOc1ccc2cc(S(=O)(=O)O)ccc2c1N
inactive: [6] 93 % of control | [1] 97 % of control | [18] 95 % of control | [2] 98 % of control | [19] 87 % of control | [3] 101 % of control

O=[N+]([O-])c1ccc(O)c(C=NCCCN=Cc2cc([N+](=O)[O-])ccc2O)c1
inactive: [5] 90 % of control | [8] 102 % of control | [10] 96 % of control

CC(C)NNC(=O)c1ccccc1
inactive: dose: 25.0 mg/kg/injection, schedule: Q04DX002 (ip), vehicle: saline 109 % of control | dose: 50.0 mg/kg/injection, schedule: Q04DX002 (ip), vehicle: saline 120 % of control | [20] 109 % of control

CC[P+](c1ccccc1)(c1ccccc1)c1ccccc1
inactive: dose: 0.62 mg/kg/injection, schedule: Q01DX009 (ip), vehicle: saline 100 % of control | dose: 0.62 mg/kg/injection, schedule: Q04DX003 (ip), vehicle: saline 100 % of control | dose: 1.25 mg/kg/injection, schedule: Q01DX009 (ip), vehicle: saline 100 % of control | dose: 1.25 mg/kg/injection, schedule: Q04DX003 (ip), vehicle: saline 97 % of control | dose: 2.5 mg/kg/injection, schedule: Q01DX009 (ip), vehicle: saline 100 % of control | dose: 2.5 mg/kg/injection, schedule: Q04DX003 (ip), vehicle: saline 97 % of control

C=CS(=O)(=O)CCN(C)C
inactive: [20] 94 % of control | dose: 200.0 mg/kg/injection, schedule: Q04DX002 (ip), vehicle: saline 90 % of control | dose: 400.0 mg/kg/injection, schedule: Q04DX002 (ip), vehicle: saline 94 % of control

CCOc1ccccc1NC(=O)Nc1ccccc1
inactive: [12] 92 % of control | [1] 95 % of control | [13] 96 % of control | [2] 109 % of control | [14] 91 % of control | [3] 98 % of control

CC(=O)OC1C=CC(Oc2ccc([N+](=O)[O-])cc2)OC1CO (stereo not drawn)
inactive: [7] 93 % of control | [9] 91 % of control | [11] 96 % of control
